Measurements as given in the supplement of paper PMC11451515.

Legend:
Experiment in all cases: AUC of viability dose-response curve (% viability x log10 dose units); higher = less sensitive
Conditions in all cases: 48 h
[1] = test system: P12-Ichikawa
Outline: (§1)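 Area under the curve was integrated by trapezoidal rule from a log-logistic fit of normalised viability, with curves exceeding full viability scaled and quality-control failures removed. The fit had four parameters over log10 doses. Viability came from CellTiter-Glo One luminescence, normalised per plate to DMSO and cell-free wells, after leukemia cells adapted to each medium (500 or 1000 cells/well, 1536-well plates) were exposed to library compounds in DMSO for 48 h at 37°C. The 11 threefold doses ran from 47 μM to 0.79 nM.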

[2] = test system: NOMO1
Outline: as §1

[3] = test system: SEM cells
Outline: as §1

[4] = RPMI 5 mM glucose + 10% dialyzed FBS

| Compound | AUC of viability dose-response curve ([1]; HPLM + 10% dialyzed FBS) | AUC of viability dose-response curve ([1]; RPMI 5 mM glucose + 10% FBS) | AUC of viability dose-response curve [1, 4] | AUC of viability dose-response curve ([2]; HPLM + 10% dialyzed FBS) | AUC of viability dose-response curve ([2]; RPMI 5 mM glucose + 10% FBS) | AUC of viability dose-response curve [2, 4] | AUC of viability dose-response curve ([3]; HPLM + 10% dialyzed FBS) | AUC of viability dose-response curve ([3]; RPMI 5 mM glucose + 10% FBS) | AUC of viability dose-response curve [3, 4] |
| --- | --- | --- | --- | --- | --- | --- | --- | --- | --- |
| CO[C@@H]1[C@@H](OC(N)=O)[C@@H](O)[C@H](OC2=CC=C3\C(=C(NC(=O)C4=CC=C([O-])C(=C4)CC=C(C)C)/C(=O)OC3=C2C)O)OC1(C)C | 449 | 465 | 464 | 437 | 451 | 437 | 476 | 445 | 461 |
| NC1CCC(Nc2nc(Nc3ccc(C(=O)N4CCCCC4)cc3)c3ncn(-c4cccc(F)c4)c3n2)CC1 (stereo not given) | 429 | 459 | 439 | 437 | 457 | 470 | 436 | 435 | 426 |
| CC(C[N+](C)(C)C)OC(N)=O (stereo not given) | 469 | 456 | 468 | 462 | 456 | 465 | 462 | 456 | 477 |
| CCCCCCCCOc1ccccc1C(=O)Nc1ccc(C(=O)OCC[N+](C)(CC)CC)cc1 | 437 | 444 | 408 | 446 | 401 | 413 | 435 | 414 | 460 |
| Cc1cccc(N(C)C(=S)Oc2ccc3ccccc3c2)c1 | 469 | 466 | 471 | 460 | 470 | 469 | 445 | 470 | 476 |
| CCOc1cc(/C=C2/C(=O)N(c3ccccc3)N=C2C)cc(Cl)c1OCC(=O)OC | 424 | 408 | 418 | 432 | 413 | 425 | 386 | 422 | 383 |
| C/C(=C\c1csc(C)n1)[C@@H]1C[C@@H]2O[C@]2(C)CCC[C@H](C)[C@H](O)[C@@H](C)C(=O)C(C)(C)[C@@H](O)CC(=O)O1 | 139 | 120 | 184 | 138 | 82 | 114 | 104 | 74.6 | 95.4 |
| C[N+](C)(C)CC(=O)O.[Cl-] | 442 | 446 | 411 | 432 | 398 | 416 | 373 | 374 | 391 |
| Cc1cc(SCc2sc(-c3ccc(C(F)(F)F)cc3)nc2C)ccc1OCC(=O)O | 471 | 459 | 458 | 447 | 443 | 463 | 453 | 459 | 457 |
| CCc1c(O)cc(O)c(C(=O)c2ccc(OCCN3CCOCC3)c(OC)c2)c1CC(=O)N(CCOC)CCOC | 399 | 384 | 383 | 359 | 367 | 375 | 383 | 347 | 355 |
| Cc1ccc(NC(=O)c2cccc(N(C)C)c2)cc1NC(=O)c1ccc(O)cc1 | 456 | 461 | 446 | 472 | 464 | 470 | 457 | 474 | 450 |
| COc1cc(NC(=O)c2ccc(-c3ccc(Cl)cc3)o2)cc(OC)c1 | 471 | 472 | 472 | 412 | 432 | 418 | 457 | 465 | 463 |
| COC1=CC(=CC=C1)C2=CC=C(NC(=O)/C3=C(/CCC3)C(O)=O)C(=C2)F | 444 | 436 | 431 | 428 | 469 | 457 | 465 | 461 | 447 |
| O=C([O-])[C@H](CC(=O)N1C[C@H]2CCCC[C@H]2C1)Cc1ccccc1 | 445 | 442 | 471 | 465 | 440 | 448 | 395 | 418 | 374 |
| COC(=O)Nc1ccc(-c2nc(N3CCOCC3)c3cnn(C4CCN(Cc5cccnc5)CC4)c3n2)cc1 | 355 | 323 | 314 | 298 | 361 | 319 | 292 | 242 | 249 |
| CN(CCOc1ccc(NS(C)(=O)=O)cc1)CCc1ccc(NS(C)(=O)=O)cc1 | 469 | 465 | 464 | 451 | 455 | 463 | 444 | 463 | 447 |
| COC/1=C/[C@@H]2[C@@H]3CC4=C(C(=C(OC)C=C4)O)[C@]2(CCN3C)CC1=O | 473 | 467 | 466 | 476 | 459 | 471 | 472 | 469 | 464 |
| C[C@]12CC[C@@H]3c4ccc(O)cc4CC[C@H]3[C@@H]1CC[C@@H]2O | 446 | 455 | 440 | 435 | 453 | 450 | 441 | 434 | 431 |
| CCCc1nc2c(C)cc(-c3nc4ccccc4n3C)cc2n1Cc1ccc(-c2ccccc2C(=O)O)cc1 | 470 | 382 | 465 | 446 | 463 | 465 | 456 | 463 | 472 |
| O=C(O)c1ccc(-c2c[nH]c3ncc(-c4ccccc4)cc23)cc1C1CCCC1 | 458 | 453 | 450 | 466 | 471 | 468 | 435 | 404 | 400 |
| C[C@H]1[C@H](O)O[C@@H]2O[C@@]3(C)CC[C@H]4[C@H](C)CC[C@@H]1[C@@]24OO3 | 386 | 340 | 333 | 321 | 316 | 341 | 374 | 348 | 324 |
| CCCC(CCC)C(=O)[O-] | 468 | 472 | 476 | 448 | 469 | 453 | 461 | 442 | 468 |
| CN1/C=C(\N=C(NC2=CC=C(C=C2)C(=O)N3CCOCC3)/C1=O)/C4=C(C)C(=CC=C4)NC(=O)C5=CC=C(C=C5)C(C)(C)C | 458 | 466 | 467 | 466 | 430 | 454 | 468 | 443 | 458 |
| O=[S+]([O-])(CCSSCC[S+](=O)([O-])[O][Na])[O][Na] | 461 | 451 | 472 | 432 | 428 | 450 | 423 | 457 | 438 |
| O=C(Nc1ccc([N+](=O)[O-])cc1Cl)c1cc(Cl)ccc1O | 386 | 368 | 335 | 375 | 363 | 372 | 369 | 336 | 370 |
| O=C(C1CC1)N1CC[C@@H](Cn2c(-c3ccc(-c4ccc5occc5c4)cc3)nc3cnccc32)C1 | 461 | 470 | 469 | 469 | 456 | 468 | 457 | 465 | 462 |
| OC(CCN1CCCCC1)(C2CC\3CC2\C=C3)C4=CC=CC=C4 (stereo not given) | 463 | 470 | 455 | 465 | 475 | 453 | 442 | 440 | 439 |
| Cc1cc(-c2nnc3n2CCCCC3)c(C)n1-c1ccccc1 | 464 | 462 | 470 | 464 | 473 | 470 | 470 | 424 | 472 |
| CCNC(=O)Nc1ccc(-c2nc3c(c(N4CCOC[C@@H]4C)n2)CCN(C2COC2)C3)cc1 | 370 | 358 | 356 | 352 | 407 | 380 | 366 | 353 | 378 |
| O=C(O)CSCC(=O)NC1CCSC1=O (stereo not given) | 466 | 469 | 463 | 471 | 476 | 476 | 451 | 456 | 464 |
